# Test results published in patent US11376326B2, “GPC3-targeting therapeutic agent which is administered to patient for whom the GPC3-targeting therapeutic agent is effective” (CHUGAI SEIYAKU KABUSHIKI KAISHA, priority 2015, dated 2022).
# Like-named read-outs stand apart in the source and are kept apart here.
# Experiments:
# [1] = system: human cell line HepG2 strongly expressing GPC3; assay: Antitumor effect in mouse graft models using HepG2; format: in vivo; conditions: HepG2 graft mice; GC33 or ag-GC33 5 mg/kg tail vein once a week x3; sorafenib 5 mg/kg oral five times a week for 3 weeks; from day 18; FIG. 1
# Method: GC33 or ag-GC33 was administered at 5 mg/kg to the tail vein of each mouse once a week a total of three times from 18 days after HepG2 transplantation. Sorafenib was orally administered at 5 mg/kg to each mouse five times a week for 3 weeks from 18 days after HepG2 transplantation.
# [2] = system: sGPC3-N; assay: sGPC3-N in mouse plasma by ELISA (GT30/GT607) at completion of antitumor evaluation; format: in vivo; conditions: HepG2 graft mice, FIG. 2
# Method: (§1) At the completion of the antitumor effect evaluation, plasma was collected from each mouse. Fragments of a soluble form of GPC3 were assayed by two types of ELISA methods differing in the combination of anti-GPC3 antibodies. In order to detect the fragments of a soluble form of GPC3 in ELISA, mouse monoclonal antibodies binding to the N-terminal subunit of human GPC3 were prepared as described in WO2004/022739. Hereinafter, the obtained antibodies are referred to as GT30 and GT607 for the sake of convenience. Also, mouse monoclonal antibodies binding to the C-terminal subunit of human GPC3 were prepared as described in WO2004/022739. Hereinafter, the obtained antibodies are referred to as GT96 and M3C11 for the sake of convenience. […]
# (§2) Specifically, the detection of sGPC3-N and the detection of sGPC3-C by ELISA were performed as follows: first, the GT30 antibody diluted to 1 μg/mL with a carbonatebicarbonate buffer (manufactured by Sigma-Aldrich Co., LLC) or the M3C11 antibody adjusted to 128 μg/mL in the same way thereas was added at 50 μL/well to a 96-well microplate (manufactured by Meso Scale Discovery (MSD), Multi-array 96-well plate) and stirred at room temperature for 1 hour. […] After washing five times with a washing solution, a substrate solution (manufactured by Meso Scale Discovery (MSD), MSD Read Buffer T (4×) with Surfactant) was added thereto at 100 μL/well. […]
# [3] = system: advanced hepatocellular carcinoma; conditions: cited from earlier work
# [4] = system: advanced hepatocellular carcinoma; conditions: cited from earlier work; remark: listed apart in the source
# [5] = system: advanced hepatocellular carcinoma; conditions: Asian trial; cited from earlier work
# [6] = system: sGPC3-C; assay: sGPC3-C in mouse plasma by ELISA (GT96/M3C11) at completion of antitumor evaluation; format: in vivo; conditions: HepG2 graft mice, FIG. 3
# Method: as §1, §2
# [7] = target: human GPC3 (Homo sapiens, UniProt P51654); conditions: cited from earlier work
Molecule,tumor enlargement inhibitory effect (tumor volume) [1],sGPC3-N level in plasma [2],"HR of survival duration ([3]; both trials, versus placebo)",objective response rate ([3]; in vivo),time to symptomatic progression ([3]; in vivo),time to tumor radiological progression ([4]; European and American trial),survival duration ([4]; SHARP trial),survival duration [5],time to tumor radiological progression [5],sGPC3-C level in plasma [6],binding affinity to human GPC3 [7]
CNC(=O)c1cc(Oc2ccc(NC(=O)Nc3ccc(Cl)c(C(F)(F)F)c3)cc2)ccn1 [sorafenib],the tumor enlargement inhibitory effect was weaker than that of GC33,equivalent to the GC33 administration group,0.68,low,no prolongation,5.5 months,10.7 months,6.5 months,2.8 months,,
GC33: recombinant humanized IgG1 monoclonal antibody binding to human GPC3 with high affinity (WO2006/006693),tumor enlargement was inhibited as compared with the control group,a lower level of sGPC3-N was found as compared with the control group,,,,,,,,"higher in the GC33 administration group compared with the control group, the ag-GC33 group, and the sorafenib group",high affinity
